Structures can show the parent of a compound that is named as a salt.
Legend:
[1] = target: T1, RGS4(WT) (Rattus norvegicus, UniProt P49799); experiment: Malachite green assay of RGS4-stimulated Gαi GTPase activity; format: biochemical; conditions: for Mean absorbance at 642 nm, positive control wells: 10 μM final; for IC50 / Inhibition of RGS4 (in words): malachite green assay; for IC50: RGS4 200 nM final, concentration-response, read-out: IC50 against RGS4(WT); for Inhibition of RGS4 (in words): screen hits
T1 sequence (P49799 51-205): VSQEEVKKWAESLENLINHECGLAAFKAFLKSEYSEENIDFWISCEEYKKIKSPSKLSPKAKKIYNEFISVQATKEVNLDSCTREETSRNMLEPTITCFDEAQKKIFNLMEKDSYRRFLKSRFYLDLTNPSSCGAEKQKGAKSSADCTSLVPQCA
Description: Stock solutions of each of the 3 components of the developing solution were prepared, which were stable for long-term storage [19]. Malachite solution was prepared by first diluting concentrated sulfuric acid 1:5 in distilled water. Once the solution cooled to 25° C., malachite solution was prepared by dissolving 0.44 g of malachite green oxalate (Alfa Aesar; Ward Hill, Mass.) in 360 mL diluted acid and stored at 25° C. Molybdate solution, containing 7.5% ammonium molybdate tetrahydrate (Alfa Aesar; Ward Hill, Mass.), was prepared in distilled water and stored at 4° C. Tween-20 solution, used to maintain solubility of the phosphate-molybdate-malachite complex, was prepared as 11% (v/v) Tween-20 in distilled water. On the day of use, 2.5 mL molybdate solution and 0.2 mL Tween-20 solution were added to 10 mL of malachite solution and mixed quickly to avoid precipitation of malachite. The final ratio of the Developing Solution (DS) was 50:12.5:1 (malachite:molybdate:Tween-20). The peak absorbance was determined by a 2 nm step wavelength scan, using 50 μM NaH2PO4 at pH 8.0 as the negative control.
The malachite green assay involved 5 components, with a 1 min spin at 100×g between each addition. For time-course experiments, the first component was 10 μL Malachite Green Assay Buffer (MGB; 50 mM HEPES at pH 7.5, 100 mM NaCl, 5 mM EDTA, 10 mM MgCl2, 0.01% lubrol) into a clear 384-well plate (ThermoFisher Scientific; Waltham, Mass.) using a MultiDrop dispenser (PerkinElmer; Waltham, Mass.). The second component dispensed was 10 μL of a 4× stock of RGS4, typically 200 nM to 1.6 μM with the target final concentration of 50 nM to 400 nM, diluted in MGB. After a 30 min incubation, 10 μL of the third component, 4× stock of Gαi diluted in MGB, was dispensed (typically between 4 μM and 80 μM with a desired final concentration 1 μM to 20 μM). After a minimum of 5 min incubation, 10 μL of the fourth component, 4×GTP diluted in MGB, was added at 10 minute intervals from 1-110 minutes. 4×GTP concentrations varied between 0.2 mM and 2.4 mM, with a target final concentration of 50 μM to 600 μM. To terminate the reaction, 10 μL of DS was added to each well using a Microlab Star liquid handling robot (Hamilton Robotics; Reno, Nev.), to achieve a final ratio 4:1 (sample:developing solution). Following the spin, the plate was incubated for 25 min before being read at 642 nm for absorbance using an EnVision plate reader (PerkinElmer; Waltham, Mass.).
Malachite green compound activity and Z-factor analysis conducted in 384-well plates utilized optimized parameters as discerned from the time-course experiments. 10 μL of 4× compound or MGB was dispensed into appropriate wells. For single point assay, 160 μM compound was used, and for dose-response assays a series of ½ log dilutions from 100 μM final to 316 μM final was used. 10 μL of the optimized 4×RGS4 concentration, 0.8 μM in MGB, was dispensed into all wells. After a spin down at 100×g for 1 min, the assay plate was incubated at 25° C. for 30 min. 10 μL of the optimized Gαi concentration, 20 μM in MGB, was dispensed to each well and incubated at 25° C. for 5 min. 10 μL of the optimized 4×GTP, 600 μM in MGB, was then added to the samples. After spinning the samples down at 100×g for 1 min, the samples were incubated at 25° C. for 75 min. The samples were then stamped with 10 μL of DS and incubated for 25 min before reading absorbance at 642 nm.
1536-well Z-factor analysis and compound library screen were accomplished largely as described for 384-well plates. Initial screen and Z-factor determination was performed in a final concentration of 5.5% dimethylsulfoxide. For 1536-well assays NUNC clear plates were used (ThermoFisher Scientific; Waltham, Mass.). Each component was dispensed as 1.8 μL samples into each well using a FlexDrop (PerkinElmer; Waltham, Mass.).

[2] = target: T2, RGS4(Δ7) mutant (Rattus norvegicus, UniProt P49799, C132A/C148A/C183A/C197A/C204A/C71A/C95A); experiment: Malachite green assay counter screen against cysteine-null RGS4(Δ7) mutant; format: biochemical; conditions: for IC50: concentration-response; for Inhibition of RGS4(Δ7) mutant (in words): screen hits
T2 construct: fused to the N-terminus of an RGS4 construct containing amino acids 51-205; 10x His tag (N, cleaved yes); TEV protease recognition site (N, cleaved yes); made in house; host or cells: E. coli BL21-DE3 (vector pMALC2H10T)
T2 sequence (P49799 51-205 C71A/C95A/C132A/C148A/C183A/C197A/C204A limits assumed): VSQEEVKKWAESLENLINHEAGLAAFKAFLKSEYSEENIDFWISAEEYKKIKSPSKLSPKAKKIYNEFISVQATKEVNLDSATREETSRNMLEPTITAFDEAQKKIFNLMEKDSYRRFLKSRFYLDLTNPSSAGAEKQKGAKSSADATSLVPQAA
Description: Rat RGS4, sharing 97% sequence identity with human RGS4, and the cysteine to alanine mutant were expressed as fusion proteins of maltose binding protein (MBP), a 10× His tag, and a TEV protease recognition site fused to the N-terminus of an RGS4 construct containing amino acids 51-205, in the vector pMALC2H10T in BL21-DE3 bacteria (Stratagene; Santa Clara, Calif.). The single cysteine-null Δ51-RGS4 construct was generated by site-directed mutagenesis as described previously Expression and purification were performed as described previously. Purified protein was incubated with TEV protease at a molar ratio of 10:1 (fusion protein:TEV protease) overnight at 4° C. The cleaved Δ51-RGS4 was then isolated by purification over an ANX column (GE Healthcare; Fairfield, Conn.) in 50 mM HEPES at pH6.8 and 50 mM NaCl. The flow through, containing the ˜99% Δ51-RGS4 as determined by SDS-PAGE gel, was then collected and concentrated using a YM-10 centrifugal concentrator (Millipore; Billerica, Mass.). The concentration of Δ51-RGS4 was calculated based on the absorbance at 280 nm utilizing a Take-3 plate (Biotek; Winnoski, Vt.) in a Synergy 2 plate reader (Biotek; Winnoski, Vt.).
Stock solutions of each of the 3 components of the developing solution were prepared, which were stable for long-term storage. Malachite solution was prepared by first diluting concentrated sulfuric acid 1:5 in distilled water. Once the solution cooled to 25° C., malachite solution was prepared by dissolving 0.44 g of malachite green oxalate (Alfa Aesar; Ward Hill, Mass.) in 360 mL diluted acid and stored at 25° C. Molybdate solution, containing 7.5% ammonium molybdate tetrahydrate (Alfa Aesar; Ward Hill, Mass.), was prepared in distilled water and stored at 4° C. Tween-20 solution, used to maintain solubility of the phosphate-molybdate-malachite complex, was prepared as 11% (v/v) Tween-20 in distilled water. On the day of use, 2.5 mL molybdate solution and 0.2 mL Tween-20 solution were added to 10 mL of malachite solution and mixed quickly to avoid precipitation of malachite. The final ratio of the Developing Solution (DS) was 50:12.5:1 (malachite:molybdate:Tween-20). The peak absorbance was determined by a 2 nm step wavelength scan, using 50 μM NaH2PO4 at pH 8.0 as the negative control.
Malachite green compound activity and Z-factor analysis conducted in 384-well plates utilized optimized parameters as discerned from the time-course experiments. 10 μL of 4× compound or MGB was dispensed into appropriate wells. For single point assay, 160 μM compound was used, and for dose-response assays a series of ½ log dilutions from 100 μM final to […] final was used. 10 μL of the optimized 4×RGS4 concentration, 0.8 μM in MGB, was dispensed into all wells. After a spin down at 100×g for 1 min, the assay plate was incubated at 25° C. for 30 min. 10 μL of the optimized Gαi concentration, 20 μM in MGB, was dispensed to each well and incubated at 25° C. for 5 min. 10 μL of the optimized 4×GTP, 600 μM in MGB, was then added to the samples. […] The samples were then stamped with 10 μL of DS and incubated for 25 min before reading absorbance at 642 nm.
Initial hits were confirmed by single point malachite green assay at 40 μM compound. […] This control would detect compounds that either interrupt the detected complex or reduce the molybdate resulting in peak shift outside of the desired wavelength. […] Compounds that increased the predicted absorbance were carried through, as they would indicate false negatives in the assay. […]

| SMILES | Mean absorbance at 642 nm, positive control wells ([1]; 384-well plate, 192 wells, negative control mean 1.74) | Mean absorbance at 642 nm, positive control wells ([1]; 1536-well plate, 5.5% DMSO, 128 wells, negative control mean 0.67) | IC50 [2] | IC50 [1] | Inhibition of RGS4(Δ7) mutant (in words) [2] | Inhibition of RGS4 (in words) [1] |
| --- | --- | --- | --- | --- | --- | --- |
| Cc1ccc(-n2sc(=O)n(Cc3ccc(F)cc3)c2=O)cc1 [CCG-50014, reference compound] | 0.92 | 0.30 |  |  |  |  |
| C[n+]1cc2c3c(ccc2c2ccc4cc5c(cc4c21)OCO5)OCO3 [UI-5, sanguinarium sulfate] |  |  | 454 µM | 126 µM |  |  |
| CC1=C(O)C(=O)C=C2C1=CC=C1[C@@]2(C)CC[C@@]2(C)[C@@H]3C[C@](C)(C(=O)O)CC[C@]3(C)CC[C@]12C [UI-1590, celastrol] |  |  | 88 µM | 0.724 µM |  |  |
| CC(C)=CCC[C@]1(C)C=Cc2c(O)c3c(c(CC=C(C)C)c2O1)O[C@]12C(=C[C@@H]4C[C@H]1C(C)(C)O[C@@]2(C/C=C(/C)C(=O)O)C4=O)C3=O [UI-1907, gambogic acid] |  |  | 51 µM | 16 µM | inhibitors | inhibitors |
| CC(=O)Oc1c2c(c(CC=C(C)C)c3c1C(=O)C1=C[C@@H]4C[C@H]5C(C)(C)OC(C/C=C(\C)C(=O)O)(C4=O)[C@@]15O3)O[C@](C)(CCC=C(C)C)C=C2 [UI-2034, acetyl-isogambogic acid] |  |  |  |  | inhibitors | inhibitors |

Reference: patent US20140303199A1, “INHIBITORS OF RGS PROTEINS” (priority 2013, published 2014)
